Measured values taken from patent EP0877740B1, “THIOL DERIVATIVES WITH METALLOPEPTIDASE INHIBITORY ACTIVITY” (ZAMBON GROUP S.p.A., priority 1995, dated 1997).

Biological target: T1, NEP (Rattus norvegicus, UniProt P07861)
T1 sequence (P07861 1-750): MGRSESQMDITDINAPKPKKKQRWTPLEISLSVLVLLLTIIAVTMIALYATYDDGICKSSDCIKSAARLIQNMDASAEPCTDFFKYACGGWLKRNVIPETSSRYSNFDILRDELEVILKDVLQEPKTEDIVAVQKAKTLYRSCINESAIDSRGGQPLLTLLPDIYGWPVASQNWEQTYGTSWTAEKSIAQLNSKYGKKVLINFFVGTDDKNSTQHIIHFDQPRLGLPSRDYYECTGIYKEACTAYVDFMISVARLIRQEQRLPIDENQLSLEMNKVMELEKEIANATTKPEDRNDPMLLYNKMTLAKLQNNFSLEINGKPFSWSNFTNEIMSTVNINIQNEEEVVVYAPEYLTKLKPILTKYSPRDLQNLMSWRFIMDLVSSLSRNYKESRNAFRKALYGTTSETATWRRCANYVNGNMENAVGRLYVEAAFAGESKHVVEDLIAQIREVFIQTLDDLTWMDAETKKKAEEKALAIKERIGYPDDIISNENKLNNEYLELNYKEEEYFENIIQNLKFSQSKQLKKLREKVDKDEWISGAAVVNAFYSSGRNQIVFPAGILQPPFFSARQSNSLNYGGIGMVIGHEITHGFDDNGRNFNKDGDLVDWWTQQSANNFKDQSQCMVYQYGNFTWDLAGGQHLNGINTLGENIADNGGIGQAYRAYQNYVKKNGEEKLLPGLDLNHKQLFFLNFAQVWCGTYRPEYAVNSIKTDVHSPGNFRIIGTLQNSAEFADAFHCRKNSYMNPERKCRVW
Test: In vitro NEP-inhibitory activity in rat kidney cortex membranes ([3H][Leu5]-enkephaline hydrolysis)
Type: biochemical
Parameters: Kidneys were removed from male Sprague-Dawley rats weighing approximately 300 g; from tissue; host or cells: rat kidney cortex membranes (male Sprague-Dawley)
Details: [3H][Leu5]-enkephaline 15 nM, 30°C
Experimental: The NEP-inhibitory activity was evaluated in rat kidney cortex membranes prepared according to the procedure described by T. Maeda et al. in Biochim. Biophys.
Kidneys were removed from male Sprague-Dawley rats weighing approximately 300 g and kept at 4°C.
Kidney cortex was carefully dissected, finely minced and suspended in a homogenization buffer (10 mM sodium phosphate pH 7.4 containing 1 mM MgCl2, 30 mM NaCl, 0.02% NaN3) 1:15 weight/volume.
The tissue was then cold homogenized for 30 seconds using an Ultra-Turrax homogenizer.
The membranes were collected from the buffer/sucrose interface, washed twice with 50 mM TRIS/HCl buffer (pH 7.4) and resuspended into the same buffer for storage in small aliquots at -80°C until use.
The NEP-inhibitory activity was evaluated by using the method described by C.
Aliquots of the membrane suspension prepared as above described (concentration 5 µg/ml of proteins) were preincubated in the presence of an aminopeptidase inhibitor (Bestatin - 1 mM) for 10 minutes at 30°C.
Incubation (20 minutes at 30°C) was stopped by adding HCI 0.1M (100 µl).
The formation of the metabolite [^3H]Tyr-Gly-Gly was quantified by chromatography on polystyrene columns (Porapak Q).
The percentage of inhibition of the metabolite formation in the membrane preparations treated with the compounds of formula I and with the comparative compounds with respect to the untreated membrane preparations was expressed as IC50 (nM) value.

IC50: 1.8 nM
Structure (SMILES): O=C(N[C@@H](Cc1ccc(-c2nccs2)cc1)C(=O)O)[C@@H](CS)Cc1ccccc1 [Compound 16, N-[(2S)-3-mercapto-2-phenylmethylpropionyl]-4-(2-thiazolyl)-L-phenylalanine]
